Test system: UCD patients
Assay: Example 3: TEAEs, serious and non-serious adverse events
Type: in vivo
From the text: Sixteen newborn infants aged 0 to 27 days, and 10 infants and toddlers aged 28 days to 23 months received RAVICTI Oral Liquid administered just prior to breastfeeding or intake of formula or food. The recommended dosing regimen was 3-6 times per day depending on feeding schedule.
Number of Subjects with Treatment-Emergent Adverse Events (TEAEs), Serious TEAEs, Deaths, and Discontinuations Due to TEAEs
An adverse event (AE) is any untoward medical occurrence, whether or not the event is considered related to the study drug. A serious AE is any AE that: results in death; is life threatening; requires hospitalization or prolongation of existing hospitalization; results in disability/incapacity; is a congenital anomaly/birth defect; is an important medical event. TEAEs are defined as AEs with an onset date on or after the first dose of study medication until study discontinuation. The Investigator assessed the causal relationship of each TEAE to the study drug as not related, possibly related, or probably related. From the first dose of study treatment through 30 days after the final dose (mean [SD] duration of treatment was 9.13 [6.838] months).

[1] = Non-serious adverse events, Age 0 to <2 Months

O=C(CCCc1ccccc1)OCC(COC(=O)CCCc1ccccc1)OC(=O)CCCc1ccccc1 [RAVICTI, benzenebutanoic acid, 1′,1″-(1,2,3-propanetriyl) ester]
6: Dermatitis diaper, Occurrences (all) [1] | Diarrhoea, Occurrences (all) [1] | Gastrooesophageal reflux disease, Occurrences (all) [1]
5: Cough, Occurrences (all) [1]
3: Anaemia, Occurrences (all) [1] | Ear infection, Occurrences (all) [1] | Flatulence, Occurrences (all) [1] | Hyperammonaemia, Occurrences (all) [1]
4: Dehydration, Occurrences (all) [1]
1: Agitation, Occurrences (all) [1] | Alanine aminotransferase increased, Occurrences (all) [1] | Amino acid level decreased, Occurrences (all) [1] | Ammonia increased, Occurrences (all) [1] | Anion gap increased, Occurrences (all) [1] | Arthropod bite, Occurrences (all) [1] | Aspartate aminotransferase increased, Occurrences (all) [1] | Blood bicarbonate decreased, Occurrences (all) [1] | Blood urea decreased, Occurrences (all) [1] | Body height below normal, Occurrences (all) [1] | Cardiac disorders (Tachycardia), Occurrences (all) [1] | Catheter site rash, Occurrences (all) [1] | Device occlusion, Occurrences (all) [1] | Drug withdrawal syndrome, Occurrences (all) [1] | Dysphagia, Occurrences (all) [1] | Eye discharge, Occurrences (all) [1] | Feeding disorder of infancy or early childhood, Occurrences (all) [1] | Gamma-glutamyltransferase increased, Occurrences (all) [1] | Gastroenteritis, Occurrences (all) [1] | Gastrointestinal viral infection, Occurrences (all) [1] | Hepatobiliary disorders (Hepatic calcification), Occurrences (all) [1] | Hypophagia, Occurrences (all) [1]
0/2: Serious AE Viral infection: Occurrences causally related to treatment/all (Age 2 Months to <2 Years)
0: Apnoea, Occurrences (all) [1] | Conjunctivitis, Occurrences (all) [1] | Dacryostenosis congenital, Occurrences (all) [1] | Ear and labyrinth disorders (Excessive cerumen production), Occurrences (all) [1] | Gross motor delay, Occurrences (all) [1] | Immune System Disorders (Seasonal allergy), Occurrences (all) [1]
0/1: Serious AE Gastroenteritis: Occurrences causally related to treatment/all (Age 2 Months to <2 Years) | Serious AE Influenza: Occurrences causally related to treatment/all (Age 2 Months to <2 Years) | Serious AE Peritonitis: Deaths causally related to treatment/all (Age 2 Months to <2 Years) | Serious AE Peritonitis: Occurrences causally related to treatment/all (Age 2 Months to <2 Years) | Serious AE Pneumatosis intestinalis: Deaths causally related to treatment/all (Age 2 Months to <2 Years) | Serious AE Pneumatosis intestinalis: Occurrences causally related to treatment/all (Age 2 Months to <2 Years) | Serious AE Pyrexia: Occurrences causally related to treatment/all (Age 2 Months to <2 Years) | Serious AE Status asthmaticus: Occurrences causally related to treatment/all (Age 2 Months to <2 Years) | Serious AE Urinary tract infection: Occurrences causally related to treatment/all (Age 2 Months to <2 Years) | Serious AE Viral upper respiratory tract infection: Occurrences causally related to treatment/all (Age 2 Months to <2 Years)
2: Amino acid level increased, Occurrences (all) [1] | Angular cheilitis, Occurrences (all) [1] | Candida infection, Occurrences (all) [1] | Carbon dioxide decreased, Occurrences (all) [1] | Constipation, Occurrences (all) [1] | Croup infectious, Occurrences (all) [1] | Decreased appetite, Occurrences (all) [1] | Eczema, Occurrences (all) [1] | Hepatic enzyme increased, Occurrences (all) [1]
0/7: Serious AE Hyperammonaemia: Occurrences causally related to treatment/all (Age 2 Months to <2 Years)
0/0: Serious AE Feeding Disorder: Occurrences causally related to treatment/all (Age 2 Months to <2 Years) | Serious AE Gastroenteritis: Deaths causally related to treatment/all (Age 2 Months to <2 Years) | Serious AE Hyperammonaemia: Deaths causally related to treatment/all (Age 2 Months to <2 Years) | Serious AE Influenza: Deaths causally related to treatment/all (Age 2 Months to <2 Years) | Serious AE Lethargy: Deaths causally related to treatment/all (Age 2 Months to <2 Years) | Serious AE Lethargy: Occurrences causally related to treatment/all (Age 2 Months to <2 Years) | Serious AE Medical device site infection: Deaths causally related to treatment/all (Age 2 Months to <2 Years) | Serious AE Medical device site infection: Occurrences causally related to treatment/all (Age 2 Months to <2 Years) | Serious AE Meningitis bacterial: Deaths causally related to treatment/all (Age 2 Months to <2 Years) | Serious AE Meningitis bacterial: Occurrences causally related to treatment/all (Age 2 Months to <2 Years) | Serious AE Neutropenia: Deaths causally related to treatment/all (Age 2 Months to <2 Years) | Serious AE Neutropenia: Occurrences causally related to treatment/all (Age 2 Months to <2 Years) | Serious AE Pyrexia: Deaths causally related to treatment/all (Age 2 Months to <2 Years) | Serious AE Respiratory syncytial virus infection: Deaths causally related to treatment/all (Age 2 Months to <2 Years) | Serious AE Rhinovirus infection: Deaths causally related to treatment/all (Age 2 Months to <2 Years) | Serious AE Status asthmaticus: Deaths causally related to treatment/all (Age 2 Months to <2 Years) | Serious AE Tracheitis: Deaths causally related to treatment/all (Age 2 Months to <2 Years) | Serious AE Tracheitis: Occurrences causally related to treatment/all (Age 2 Months to <2 Years) | Serious AE Upper respiratory tract infection: Deaths causally related to treatment/all (Age 2 Months to <2 Years) | Serious AE Upper respiratory tract infection: Occurrences causally related to treatment/all (Age 2 Months to <2 Years) | Serious AE Urinary tract infection: Deaths causally related to treatment/all (Age 2 Months to <2 Years) | Serious AE Viral infection: Deaths causally related to treatment/all (Age 2 Months to <2 Years) | Serious AE Viral upper respiratory tract infection: Deaths causally related to treatment/all (Age 2 Months to <2 Years) | Serious AE Vomiting: Deaths causally related to treatment/all (Age 2 Months to <2 Years) | Serious AE Vomiting: Occurrences causally related to treatment/all (Age 2 Months to <2 Years)
